Activity calls are given as the source filed them. For most assays here, no stated cut-off is given here; in the data, actives have a measured EC50 and inactives only a lower limit.
Key:
[1] = molecular target: Paired box protein Pax-8 (Homo sapiens, UniProt Q06710); test: PAX8 transcriptional activity inhibition in RMG-I – RMG-I cells, luciferase, cherry-pick, dose response (AID 687027); type: functional, cell-based;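 further: luciferase reporter driven by Pax8 target thyroperoxidase promoter measured by SteadyGlo luminescence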
[2] = molecular target: T1, Replicative DNA helicase DnaB (Mycobacterium tuberculosis, UniProt P9WMR3); test: DnaB intein splicing inhibitors, dose response, biochemical, cell-free fluorescence (AID 449749); type: functional
T1 sequence (P9WMR3 whole entry): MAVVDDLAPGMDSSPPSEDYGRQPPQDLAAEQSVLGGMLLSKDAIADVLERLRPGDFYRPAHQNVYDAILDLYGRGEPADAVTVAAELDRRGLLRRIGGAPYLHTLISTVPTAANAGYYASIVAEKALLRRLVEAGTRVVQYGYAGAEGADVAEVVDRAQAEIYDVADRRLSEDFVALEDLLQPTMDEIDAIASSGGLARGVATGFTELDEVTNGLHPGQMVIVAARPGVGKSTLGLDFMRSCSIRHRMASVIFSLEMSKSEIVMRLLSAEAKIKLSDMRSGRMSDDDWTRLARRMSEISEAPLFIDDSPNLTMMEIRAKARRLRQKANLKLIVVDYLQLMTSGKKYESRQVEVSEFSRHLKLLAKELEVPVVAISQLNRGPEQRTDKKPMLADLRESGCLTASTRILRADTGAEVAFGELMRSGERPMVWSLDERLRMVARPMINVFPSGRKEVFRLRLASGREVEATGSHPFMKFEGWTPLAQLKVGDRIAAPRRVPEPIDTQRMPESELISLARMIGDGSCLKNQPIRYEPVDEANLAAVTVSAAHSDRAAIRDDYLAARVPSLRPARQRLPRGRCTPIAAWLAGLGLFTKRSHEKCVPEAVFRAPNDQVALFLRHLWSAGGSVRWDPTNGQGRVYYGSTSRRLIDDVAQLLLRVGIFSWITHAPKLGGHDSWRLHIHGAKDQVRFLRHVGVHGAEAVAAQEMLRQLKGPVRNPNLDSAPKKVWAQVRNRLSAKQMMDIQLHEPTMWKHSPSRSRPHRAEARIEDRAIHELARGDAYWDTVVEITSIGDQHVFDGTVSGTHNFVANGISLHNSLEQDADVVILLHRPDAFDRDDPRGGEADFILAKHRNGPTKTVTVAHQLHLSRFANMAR

[3] = molecular target: T2, Heat shock factor protein 1 (Mus musculus, UniProt P38532); test: decrease of HSF1-responsive luciferase luminescence – cell-based, NIH3T3, dose retest, confirmation (AID 2382); type: functional;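 further: NIH3T3 fibroblasts with HSF1-driven luciferase reporter stressed by proteasome inhibitor MG132; luminescence from HSF1-driven luciferase expression after 8 hours of MG132 stress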
T2 sequence (P38532 whole entry): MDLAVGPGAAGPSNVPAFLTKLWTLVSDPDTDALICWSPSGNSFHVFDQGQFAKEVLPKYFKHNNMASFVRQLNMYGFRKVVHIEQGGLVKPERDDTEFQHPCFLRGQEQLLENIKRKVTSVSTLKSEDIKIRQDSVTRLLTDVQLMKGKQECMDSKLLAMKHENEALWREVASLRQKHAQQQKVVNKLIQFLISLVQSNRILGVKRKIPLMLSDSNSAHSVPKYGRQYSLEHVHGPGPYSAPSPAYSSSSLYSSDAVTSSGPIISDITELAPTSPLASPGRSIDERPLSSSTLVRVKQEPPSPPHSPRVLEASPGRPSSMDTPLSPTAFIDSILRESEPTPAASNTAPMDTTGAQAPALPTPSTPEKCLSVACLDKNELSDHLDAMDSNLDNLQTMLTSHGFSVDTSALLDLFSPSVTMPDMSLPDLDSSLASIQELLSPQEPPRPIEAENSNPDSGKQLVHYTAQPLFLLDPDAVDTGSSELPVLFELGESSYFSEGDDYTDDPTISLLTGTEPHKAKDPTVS

[4] = molecular target: T3, Protein RecA (Mycobacterium tuberculosis, UniProt P9WHJ3); test: Fluorescence Cell-Free Homogeneous Dose Retest to Identify Inhibitors of RecA-Intein Splicing Activity. [Related pubchem assays (depositor defined):AID2097, AID2223, AID489010, AID492950]; type: functional
T3 sequence (P9WHJ3 whole entry): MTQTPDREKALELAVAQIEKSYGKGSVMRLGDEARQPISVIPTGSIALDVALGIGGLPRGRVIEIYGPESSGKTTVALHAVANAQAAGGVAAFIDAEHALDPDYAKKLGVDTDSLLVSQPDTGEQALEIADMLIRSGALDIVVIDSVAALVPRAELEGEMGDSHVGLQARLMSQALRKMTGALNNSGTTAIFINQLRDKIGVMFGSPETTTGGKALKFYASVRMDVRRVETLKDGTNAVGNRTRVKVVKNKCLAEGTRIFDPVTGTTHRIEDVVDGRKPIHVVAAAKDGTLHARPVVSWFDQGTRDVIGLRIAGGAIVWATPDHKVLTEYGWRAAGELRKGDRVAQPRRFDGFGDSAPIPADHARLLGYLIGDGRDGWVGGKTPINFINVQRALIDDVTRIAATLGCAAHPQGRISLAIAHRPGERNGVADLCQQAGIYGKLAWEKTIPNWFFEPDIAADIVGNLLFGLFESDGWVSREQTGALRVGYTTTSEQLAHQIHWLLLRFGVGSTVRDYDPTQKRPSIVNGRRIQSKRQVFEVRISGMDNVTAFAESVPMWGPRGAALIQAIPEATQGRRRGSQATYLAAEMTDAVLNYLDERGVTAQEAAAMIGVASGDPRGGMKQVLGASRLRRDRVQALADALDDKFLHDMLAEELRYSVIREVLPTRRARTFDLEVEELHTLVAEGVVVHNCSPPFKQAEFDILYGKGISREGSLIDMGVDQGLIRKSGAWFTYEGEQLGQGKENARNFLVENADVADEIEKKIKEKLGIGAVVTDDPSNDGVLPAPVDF

[5] = molecular target: T4, Corticotropin-releasing factor receptor 2/Corticotropin-releasing factor-binding protein (Homo sapiens, UniProt P24387+Q13324); test: Dose Response confirmation of uHTS hits for small molecule antagonists of the CRF-binding protein and CRF-R2 receptor complex.; type: functional; conditions: read-out: IC50_Mean
T4 sequence (Q13324 whole entry): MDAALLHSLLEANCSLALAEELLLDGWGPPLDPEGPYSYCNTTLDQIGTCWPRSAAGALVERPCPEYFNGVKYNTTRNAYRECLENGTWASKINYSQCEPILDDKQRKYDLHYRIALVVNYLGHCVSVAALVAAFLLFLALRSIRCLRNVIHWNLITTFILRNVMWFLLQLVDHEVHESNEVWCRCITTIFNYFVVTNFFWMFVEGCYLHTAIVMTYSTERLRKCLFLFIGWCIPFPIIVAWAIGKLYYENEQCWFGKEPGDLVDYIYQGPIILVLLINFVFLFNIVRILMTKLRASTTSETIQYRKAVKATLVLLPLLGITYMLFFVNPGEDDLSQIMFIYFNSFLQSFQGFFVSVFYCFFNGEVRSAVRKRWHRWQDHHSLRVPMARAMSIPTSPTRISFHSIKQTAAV
T4 sequence (P24387 whole entry): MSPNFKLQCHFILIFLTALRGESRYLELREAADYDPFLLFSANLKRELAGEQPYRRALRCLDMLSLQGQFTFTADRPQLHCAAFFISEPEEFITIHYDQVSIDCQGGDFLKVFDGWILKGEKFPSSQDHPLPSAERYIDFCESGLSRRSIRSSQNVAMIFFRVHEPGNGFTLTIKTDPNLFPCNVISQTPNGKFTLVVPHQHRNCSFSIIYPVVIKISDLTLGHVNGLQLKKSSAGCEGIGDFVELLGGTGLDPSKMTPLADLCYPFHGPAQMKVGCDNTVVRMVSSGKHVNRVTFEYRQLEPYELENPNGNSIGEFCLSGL

[6] = molecular target: T4, Corticotropin-releasing factor receptor 2/Corticotropin-releasing factor-binding protein; test: activators of CRF receptor 2 with binding protein – uHTS hits, confirmation (AID 602473); type: functional; conditions: read-out: EC50_Mean
[7] = molecular target: T5, RNA-binding protein pos-1 (Caenorhabditis elegans, UniProt G5EF15); test: disruptors of C. elegans POS-1 RNA interaction – biochemical, fluorescence polarization, dose response (AID 1964);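 further: purified POS-1 fused to maltose binding protein made in E. coli; potency of compounds blocking POS-1 binding to fluorescent RNA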
T5 sequence (G5EF15 whole entry): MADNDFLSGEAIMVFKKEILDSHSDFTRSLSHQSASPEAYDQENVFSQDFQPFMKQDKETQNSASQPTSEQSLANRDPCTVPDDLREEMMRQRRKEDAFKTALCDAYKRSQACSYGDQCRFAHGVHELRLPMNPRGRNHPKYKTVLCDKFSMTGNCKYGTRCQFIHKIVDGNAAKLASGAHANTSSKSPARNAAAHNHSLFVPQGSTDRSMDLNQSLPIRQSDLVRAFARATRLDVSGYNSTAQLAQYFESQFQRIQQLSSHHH

[8] = molecular target: T6, Zinc finger protein mex-5 (Caenorhabditis elegans, UniProt Q9XUB2); test: potency of MEX-5 RNA-binding blockers – biochemical, C. elegans, fluorescence polarization, dose response (AID 1960)
T6 sequence (Q9XUB2 whole entry): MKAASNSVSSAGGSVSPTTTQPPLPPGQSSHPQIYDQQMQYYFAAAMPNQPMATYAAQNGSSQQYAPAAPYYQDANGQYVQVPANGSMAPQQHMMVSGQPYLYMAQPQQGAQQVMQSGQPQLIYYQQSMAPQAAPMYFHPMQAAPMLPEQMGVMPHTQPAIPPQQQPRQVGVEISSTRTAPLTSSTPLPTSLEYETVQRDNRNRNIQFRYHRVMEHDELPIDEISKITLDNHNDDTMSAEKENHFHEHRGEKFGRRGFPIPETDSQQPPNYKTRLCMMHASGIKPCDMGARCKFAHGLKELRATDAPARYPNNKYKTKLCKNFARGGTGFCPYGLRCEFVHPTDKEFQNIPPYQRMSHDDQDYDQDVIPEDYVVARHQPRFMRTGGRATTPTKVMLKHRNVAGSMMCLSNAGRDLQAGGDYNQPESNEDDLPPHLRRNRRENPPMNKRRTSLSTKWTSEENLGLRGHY

[9] = NIH3T3 cell viability loss – ATP luminescence, mouse fibroblasts, counter-screen, dose response (AID 2010); type: functional, cell-based;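 further: cells exposed to compound for about 90 hours before reading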
[10] = Trypanosoma cruzi growth suppression in host cells – NIH3T3 host cells, beta-gal luminescence, confirmation (AID 2044); type: functional, cell-based;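 further: intracellular parasites grown in NIH/3T3 mouse fibroblasts as host cells; luminescent beta-galactosidase reporter signal from transgenic T. cruzi replicating inside host cells; inhibitors lower the luminescence signal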

Chain of Paired box protein Pax-8 (Q06710 whole entry): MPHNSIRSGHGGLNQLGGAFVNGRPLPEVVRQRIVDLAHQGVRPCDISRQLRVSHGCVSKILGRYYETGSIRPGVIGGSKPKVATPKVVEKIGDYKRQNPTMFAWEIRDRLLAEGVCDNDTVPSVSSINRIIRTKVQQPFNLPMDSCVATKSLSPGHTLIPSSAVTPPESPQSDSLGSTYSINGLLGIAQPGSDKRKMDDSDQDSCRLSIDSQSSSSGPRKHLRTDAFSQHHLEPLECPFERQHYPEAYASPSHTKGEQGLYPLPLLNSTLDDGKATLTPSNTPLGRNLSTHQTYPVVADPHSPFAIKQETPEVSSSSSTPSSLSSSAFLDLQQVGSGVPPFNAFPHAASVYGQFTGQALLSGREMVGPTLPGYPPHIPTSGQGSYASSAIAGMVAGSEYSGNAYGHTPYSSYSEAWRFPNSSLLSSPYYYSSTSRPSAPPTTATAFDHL

## COc1ccc(S(=O)(=O)N(C)C[C@H]2Oc3ccc(NC(=O)Nc4ccc(C(F)(F)F)cc4)cc3C(=O)N([C@H](C)CO)C[C@@H]2C)cc1
[1]
  AC50: 8.69 µM (active)

## COC(=O)c1nnc(NC(=O)c2ccc(C(C)(C)C)cc2)[nH]1
[2]
  AC50: 3.57 µM (active)
[3]
  EC50: > 195 µM (not active)
[4]
  EC50: 10.1 µM (active)

## CCCCCCCOC(=O)c1ccc(OC(=O)c2cccnc2)cc1
[4]
  EC50: > 380 µM (inconclusive)

## CCOc1ccc(C(=O)NNC(=O)CCNC(=O)c2ccco2)cc1OC
[5]
  IC50: > 47.1 µM (inactive)
[6]
  EC50: > 53 µM (inactive)

## C#CCNC(=O)C1=C[C@H](c2ccc3c(c2)OCO3)[C@@H](CCCO)[C@H](OCC)O1
[5]
  IC50: > 47.1 µM (inactive)
[6]
  EC50: > 53 µM (inactive)

## Cc1cc2c(NS(=O)(=O)c3ccc(F)cc3)cccc2nn1
[5]
  IC50: > 47.1 µM (inactive)
[6]
  EC50: > 53 µM (inactive)

## Cn1c(SCC(=O)c2ccc3c(c2)OCCO3)nnc1C(F)(F)F
[5]
  IC50: > 47.1 µM (inactive)
[6]
  EC50: > 53 µM (inactive)

## CCN(CC)C(=O)c1ccc2c(c1[N+](=O)[O-])C(=O)c1ccccc1C2=O
[2]
  AC50: > 380 µM (inactive)
[4]
  EC50: > 380 µM (inactive)

## O=C(O)CCc1ccc(-c2ccccc2)n1-c1ccc(C(=O)O)cc1
[7]
  EC50: > 300 µM (not active)
[8]
  EC50: > 300 µM (not active)

## CC(=O)N(C)Cc1ccc(C(=O)CCl)cc1
[2]
  AC50: 56.2 µM (active)
[9]
  EC50: 3.7 µM (active)
[10]
  EC50: 2.51 µM (active)
[4]
  EC50: 19.4 µM (active)

## CCCOc1ccc(/C=c2\sc3nc(-c4ccco4)nn3c2=O)cc1OCC
[7]
  EC50: > 300 µM (not active)
[8]
  EC50: > 300 µM (not active)

## COc1c(/C=C2/C(=O)NC(=O)N(C)C2=O)c(CCN(C)C(=O)c2ccccc2)cc2c1OCO2
[7]
  EC50: > 300 µM (not active)
[8]
  EC50: > 300 µM (not active)

## O=c1ccc2cc(S(=O)(=O)NCc3ccccc3)ccc2[nH]1
[5]
  IC50: > 47.1 µM (inactive)
[6]
  EC50: > 53 µM (inactive)

## Cc1noc(C)c1COC(=O)Cc1ccc(Br)cc1
[2]
  AC50: 124 µM (active)
[4]
  EC50: > 380 µM (inactive)

## COC(=O)C1CSc2[nH]c(=O)sc2C1c1ccc(OC)c(OC)c1 (centres undefined)
[7]
  EC50: > 300 µM (not active)
[8]
  EC50: > 300 µM (not active)

## COc1ccccc1C(=O)NC(CCSC)C(=O)NC1CCCCCC1 (centres undefined)
[5]
  IC50: > 47.1 µM (inactive)
[6]
  EC50: > 53 µM (inactive)

## CC(=O)c1ccc(N2CCN(C(=O)CCS(=O)(=O)c3ccc4c(c3)CCN4C(C)=O)CC2)cc1
[5]
  IC50: > 47.1 µM (inactive)
[6]
  EC50: > 53 µM (inactive)

## CCOC(=O)c1c2ccc(OCC(=O)N/N=C/c3ccc(Cl)cc3)cc2n2ccccc12
[7]
  EC50: > 300 µM (not active)

## C[C@@H]1CCCCO[C@@H](CN(C)Cc2ccc(Cl)c(Cl)c2)[C@H](C)CN([C@H](C)CO)C(=O)c2cc(NC(=O)Nc3ccccc3)ccc2O1
[1]
  AC50: 12.5 µM (active)

## O=C(Nc1ccccc1)c1nc[nH]c1C(=O)NCCN(CCNC(=O)c1[nH]cnc1C(=O)Nc1ccccc1)CCNC(=O)c1[nH]cnc1C(=O)Nc1ccccc1
[5]
  IC50: > 47.1 µM (inactive)
[6]
  EC50: > 53 µM (inactive)

## CCOC(=O)CSc1nnc(NCC(=O)OC(C)C)c(=O)[nH]1
[2]
  AC50: 3.45 µM (active)
[4]
  EC50: 9.44 µM (active)

## C[C@H](CO)N1C[C@H](C)[C@H](CN(C)S(=O)(=O)c2ccc(Cl)cc2)OCCCC[C@H](C)Oc2ccc(NS(=O)(=O)c3ccc(F)cc3)cc2C1=O
[1]
  AC50: 9.43 µM (active)

## Cc1ccc2nc(N3C(=O)C(O)=C(C(=O)c4ccc(C)o4)C3c3cccc(O)c3)sc2c1 (centres undefined)
[5]
  IC50: 7.83 µM (active)
[6]
  EC50: > 53 µM (inactive)

— ChEMBL document CHEMBL1201862, “PubChem BioAssay data set” (2004)
